Measurements: article PMC12374581 (European journal of medicinal chemistry, 2025)
Several values for one entry are separate records, joined by “and”; a condition that tells them apart may be missing. Equal values may be shown once. Read-outs that look alike come from different tables or passages of the source.

How the values were obtained:
[1] = molecular target: human μ opioid receptor (OPRM1) (Homo sapiens, UniProt P35372); experiment: cell-based; type: cell-based; conditions: for Emax: OPRM1, read-out: MOR cAMP %Emax ± SEM
[2] = molecular target: human μ opioid receptor β-arrestin-2 (Homo sapiens, UniProt P35372); experiment: cell-based; conditions: for Emax: read-out: β-Arrestin Recruitment %Emax ± SEM
in vitro [3] = conditions: human, microsomes
in vitro [4] = conditions: mouse, microsomes
[5] = molecular target: human δ opioid receptor (OPRD1) (Homo sapiens, UniProt P41143); experiment: cell-based; type: cell-based; conditions: for Emax: read-out: DOR cAMP Emax ± SEM (%)
[6] = molecular target: κ opioid receptor (OPRK1) (Homo sapiens, UniProt P41145); experiment: cell-based; conditions: for Emax: read-out: KOR cAMP Emax ± SEM (%)
[7] = molecular target: nociceptin receptor (OPRL1) (Homo sapiens, UniProt P41146); experiment: cell-based; type: cell-based; conditions: for Emax: read-out: NOR cAMP Emax ± SEM (%)
B6129/F1 hybrid mice [8] = experiment: Hot plate test; type: in vivo, mouse; conditions: for ED50: Mus musculus, read-out: ED50 (antinociception, hot plate); for in vivo agonist profile (antinociception): hot plate, mice; for in vivo agonist profile (antinociception) / Emax (maximal possible effect at the highest dose, hot plate): i.p.; for Emax (maximal possible effect at the highest dose, hot plate): cumulative doses, B6129/F1 mice, nonlinear regression
B6129/F1 hybrid mice [9] = experiment: Naloxone pre-treatment antagonist study in hot plate test; type: in vivo, mouse; conditions: naloxone 10 mg/kg pretreatment, agonist 10 mg/kg
[10] = Solubility observed for in vivo dosing
[11] = read-out: β-Arrestin Recruitment EC50

Chain of human μ opioid receptor (OPRM1) (P35372 whole entry): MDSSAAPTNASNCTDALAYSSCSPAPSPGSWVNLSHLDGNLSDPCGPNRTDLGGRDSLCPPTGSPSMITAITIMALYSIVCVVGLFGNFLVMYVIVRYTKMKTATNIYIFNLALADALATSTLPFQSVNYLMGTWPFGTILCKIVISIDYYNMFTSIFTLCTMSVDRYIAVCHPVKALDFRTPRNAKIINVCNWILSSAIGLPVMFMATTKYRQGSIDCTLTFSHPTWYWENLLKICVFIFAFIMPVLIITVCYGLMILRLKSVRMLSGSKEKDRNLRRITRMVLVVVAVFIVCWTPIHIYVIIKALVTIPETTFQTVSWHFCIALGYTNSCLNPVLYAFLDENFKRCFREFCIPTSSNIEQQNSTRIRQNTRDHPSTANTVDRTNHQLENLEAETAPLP
Chain of human μ opioid receptor β-arrestin-2 (P35372 whole entry): as above
Chain of κ opioid receptor (OPRK1) (P41145 whole entry): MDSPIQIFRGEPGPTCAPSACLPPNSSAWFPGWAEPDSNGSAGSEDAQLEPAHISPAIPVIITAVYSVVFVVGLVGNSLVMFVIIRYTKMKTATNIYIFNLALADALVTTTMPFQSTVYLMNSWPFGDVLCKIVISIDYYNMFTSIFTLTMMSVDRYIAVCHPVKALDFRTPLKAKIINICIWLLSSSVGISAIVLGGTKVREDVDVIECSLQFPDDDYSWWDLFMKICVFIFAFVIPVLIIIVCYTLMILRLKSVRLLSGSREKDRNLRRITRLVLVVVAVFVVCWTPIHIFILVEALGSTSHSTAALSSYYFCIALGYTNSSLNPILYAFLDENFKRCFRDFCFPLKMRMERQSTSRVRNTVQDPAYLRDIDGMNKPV
Chain of nociceptin receptor (OPRL1) (P41146 whole entry): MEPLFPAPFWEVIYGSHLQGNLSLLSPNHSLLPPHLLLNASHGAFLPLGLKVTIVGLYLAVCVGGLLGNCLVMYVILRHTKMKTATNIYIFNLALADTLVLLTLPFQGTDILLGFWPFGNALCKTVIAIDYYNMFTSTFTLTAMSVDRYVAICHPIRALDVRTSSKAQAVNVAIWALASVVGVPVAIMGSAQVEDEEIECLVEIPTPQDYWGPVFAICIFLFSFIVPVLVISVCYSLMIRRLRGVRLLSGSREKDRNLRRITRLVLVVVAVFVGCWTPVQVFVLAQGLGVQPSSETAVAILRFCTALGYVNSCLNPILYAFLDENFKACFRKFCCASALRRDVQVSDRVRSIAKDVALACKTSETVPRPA
Chain of human δ opioid receptor (OPRD1) (P41143 whole entry): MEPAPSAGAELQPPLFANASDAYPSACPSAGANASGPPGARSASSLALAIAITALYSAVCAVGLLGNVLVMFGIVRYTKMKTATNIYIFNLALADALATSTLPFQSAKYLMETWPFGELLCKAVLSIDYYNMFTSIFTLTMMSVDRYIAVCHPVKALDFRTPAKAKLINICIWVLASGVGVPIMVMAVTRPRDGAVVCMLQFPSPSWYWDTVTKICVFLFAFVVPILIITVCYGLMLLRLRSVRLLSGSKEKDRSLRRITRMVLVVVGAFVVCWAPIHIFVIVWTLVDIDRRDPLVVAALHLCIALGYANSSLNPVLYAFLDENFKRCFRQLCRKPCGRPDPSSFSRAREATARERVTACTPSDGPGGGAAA

Compound | EC50 [1] [nM] | Emax [1] [%] | EC50 [2] [nM] | Emax [2] [%] | EC50 [2, 11] [nM] | Emax [5] [%] | Emax [7] [%] | further results
Oc1ccc(N2C3CCC2CN(CCCc2ccccc2)C3)cc1 [Compound 1, 4-(3-(3-Phenylpropyl)-3,8-diazabicyclo[3.2.1]octan-8-yl)phenol] | 250 | 58.7 ± 5.8 | > 10000 | 0 | > 10000 |  |  | fold reduction in MOR cAMP potency compared to atoxifent [1]: 700 fold
OCc1cccc(N2C3CCC2CN(CCCc2ccccc2)C3)c1 [Compound 3, (3-(3-(3-Phenylpropyl)-3,8-diazabicyclo[3.2.1]octan-8-yl)phenyl)methanol] | 20 | 102 ± 1.1 |  |  |  |  |  | 
CC(C)(O)c1cccc(N2C3CCC2CN(CCCc2ccccc2)C3)c1 [Compound 4, 2-(3-(3-(3-Phenylpropyl)-3,8-diazabicyclo[3.2.1]octan-8-yl)phenyl)propan-2-ol] | 250 | 107.8 ± 0.9 |  |  |  |  |  | fold decrease in MOR cAMP activity compared to 3 [1]: 12 fold
OC1(c2cccc(N3C4CCC3CN(CCCc3ccccc3)C4)c2)COC1 [Compound 5, 3-(3-(3-(3-Phenylpropyl)-3,8-diazabicyclo[3.2.1]octan-8-yl)phenyl)oxetan-3-ol] | 63 | 102.6 ± 0.5 |  |  |  |  |  | 
Oc1cc(Cl)cc(N2C3CCC2CN(CCCc2ccccc2)C3)c1 [Compound 6, 3-Chloro-5-(3-(3-phenylpropyl)-3,8-diazabicyclo[3.2.1]octan-8-yl)phenol] | 20 | 99.6 ± 1.1 |  |  |  |  |  | 
Oc1cc(F)cc(N2C3CCC2CN(CCCc2ccccc2)C3)c1 [Compound 8, 3-Fluoro-5-(3-(3-phenylpropyl)-3,8-diazabicyclo[3.2.1]octan-8-yl)phenol] | 0.79 | 99.9 ± 0.6 | > 10000 | 0 | > 10000 |  |  | half-life (in vitro [3]): 26.6 min; half-life (in vitro [4]): 3.3 min
FC(F)c1cccc(N2C3CCC2CN(CCCc2ccccc2)C3)c1 [Compound 9, 8-(3-(Difluoromethyl)phenyl)-3-(3-phenylpropyl)-3,8-diazabicyclo[3.2.1]octane] | 13 | 102.6 ± 1 | > 10000 |  | > 10000 |  |  | 
O=[N+]([O-])c1cccc(N2C3CCC2CN(CCCc2ccccc2)C3)c1 [Compound 10, 8-(3-Nitrophenyl)-3-(3-phenylpropyl)-3,8-diazabicyclo[3.2.1]octane] | 10 | 100.6 ± 0.4 | > 10000 | 0 | > 10000 |  |  | 
Nc1cccc(N2C3CCC2CN(CCCc2ccccc2)C3)c1 [Compound 11, 3-(3-(3-Phenylpropyl)-3,8-diazabicyclo[3.2.1]octan-8-yl)aniline] | 0.25 | 104 ± 2.4 | > 10000 | 0 | > 10000 | 71.1 ± 3.6 | 0 | EC50 [5]: 1.6 nM; EC50 [6]: > 10000 nM; Emax [6]: 0%; EC50 ([7]; NOR cAMP EC50 (nM)): > 10000 nM; EC50 ([7]; NOR cAMP pEC50± SEM): > 10000 nM; ED50 (B6129/F1 hybrid mice [8]; ip): 0.849 mg/kg; in vivo agonist profile (antinociception) (B6129/F1 hybrid mice [8]): partial agonists; Emax (maximal possible effect at the highest dose, hot plate) (B6129/F1 hybrid mice [8]): 43.86 % MPE and 44 % MPE; effect of naloxone pretreatment on antinociceptive effects (B6129/F1 hybrid mice [9]): antagonized by naloxone; half-life (in vitro [3]): 36.5 min; half-life (in vitro [4]): 3.5 min; solubility (in words) [10]: poorly soluble
O=S(=O)(Nc1cccc(N2C3CCC2CN(CCCc2ccccc2)C3)c1)C1CC1 [Compound 12, N-(3-(3-(3-Phenylpropyl)-3,8-diazabicyclo[3.2.1]octan-8-yl)phenyl)cyclopropane-sulfonamide] | 0.5 | 98.8 ± 0.4 | 25 | 4.3 ± 0.2 |  | 71 ± 4.7 | 0 | EC50 [5]: 1.6 nM; EC50 [6]: > 10000 nM; Emax [6]: 0%; EC50 ([7]; NOR cAMP EC50 (nM)): > 10000 nM; EC50 ([7]; NOR cAMP pEC50± SEM): > 10000 nM; ED50 (B6129/F1 hybrid mice [8]; ip): 2.8 mg/kg; in vivo agonist profile (antinociception) (B6129/F1 hybrid mice [8]): partial agonists; Emax (maximal possible effect at the highest dose, hot plate) (B6129/F1 hybrid mice [8]): 33.45 % MPE and 33 % MPE; effect of naloxone pretreatment on antinociceptive effects (B6129/F1 hybrid mice [9]): antagonized by naloxone; half-life (in vitro [3]): 35.6 min; half-life (in vitro [4]): 6.4 min; solubility (in words) [10]: poorly soluble
NC(=O)c1cccc(N2C3CCC2CN(CCCc2ccccc2)C3)c1 [Compound 13, 3-(3-(3-Phenylpropyl)-3,8-diazabicyclo[3.2.1]octan-8-yl)benzamide] |  | 101.8 ± 0.3 |  | 7.5 ± 1.3 | 16 | 81.3 ± 3 | 0 | MOR cAMP pEC50±SEM [1]: 9.6 ± 0.1; EC50 ([1]; read-out: MOR cAMP EC50): 0.25 nM; β-Arrestin Recruitment pEC50 ± SEM [2]: 7.8 ± 0.1; DOR cAMP pEC50±SEM [5]: 8.0 and 8.0 ± 0.2; EC50 ([5]; read-out: DOR cAMP EC50): 10 nM; KOR cAMP pEC50± SEM [6]: < 5.0; EC50 ([6]; read-out: KOR cAMP EC50): > 10000 nM; Emax [6]: 0%; NOR cAMP pEC50± SEM [7]: < 5.0; EC50 ([7]; read-out: NOR cAMP EC50): > 10000 nM; ED50 (B6129/F1 hybrid mice [8]; ip): 0.658 mg/kg; in vivo agonist profile (antinociception) (B6129/F1 hybrid mice [8]): partial agonists; Emax (maximal possible effect at the highest dose, hot plate) (B6129/F1 hybrid mice [8]): 31.91 % MPE and 32 % MPE; effect of naloxone pretreatment on antinociceptive effects (B6129/F1 hybrid mice [9]): antagonized by naloxone; half-life (in vitro [3]): 92.7 min; half-life (in vitro [4]): 14.2 min; solubility (in words) [10]: readily soluble
NC(=O)c1ccccc1N1C2CCC1CN(CCCc1ccccc1)C2 [Compound 14, 2-(3-(3-Phenylpropyl)-3,8-diazabicyclo[3.2.1]octan-8-yl)benzamide] | 3.2 | 101.6 ± 0.6 | 700 | 26.5 ± 2.4 |  |  |  | fold decrease in MOR cAMP activity compared to 13 [1]: ~14 fold
NC(=O)c1ccc(N2C3CCC2CN(CCCc2ccccc2)C3)cc1 [Compound 15, 4-(3-(3-Phenylpropyl)-3,8-diazabicyclo[3.2.1]octan-8-yl)benzamide] | > 10000 |  |  |  |  |  |  | EC50 ([1]; read-out: MOR cAMP EC50): > 10000 nM
NC(=O)c1cc(N2C3CCC2CN(CCCc2ccccc2)C3)ccc1O [Compound 16, 2-Hydroxy-5-(3-(3-phenylpropyl)-3,8-diazabicyclo[3.2.1]octan-8-yl)benzamide] | 4 | 60.9 ± 3.9 | > 10000 | 0 | > 10000 | 34.8 ± 3 | 0 | EC50 [5]: 16 nM; agonist activity at NORs (in words) [7]: no agonist activity; EC50 ([7]; NOR cAMP EC50 (nM)): > 10000 nM; EC50 ([7]; NOR cAMP pEC50± SEM): > 10000 nM; half-life (in vitro [3]): 13 min; half-life (in vitro [4]): 2.1 min
NC(=O)c1cc(N2C3CCC2CN(CCCc2ccccc2)C3)ccc1F [Compound 18, 2-Fluoro-5-(3-(3-phenylpropyl)-3,8-diazabicyclo[3.2.1]octan-8-yl)benzamide] | 10 | 100.2 ± 0.5 | > 10000 |  | > 10000 | 56.2 ± 6.2 | 41.9 ± 19.3 | EC50 [5]: 160 nM; EC50 ([7]; NOR cAMP EC50 (nM)): 25 nM; EC50 ([7]; NOR cAMP pEC50± SEM): 25.1 nM
NC(=O)c1cccc(N2C3CCC2CN(CCCc2ccccc2)C3)c1F [Compound 19, 2-Fluoro-3-(3-(3-phenylpropyl)-3,8-diazabicyclo[3.2.1]octan-8-yl)benzamide] | 2.5 | 101.2 ± 0.6 | > 10000 | 0 | > 10000 | 71.4 ± 1.8 | 19.5 ± 3.4 | EC50 [5]: 13 nM; EC50 ([7]; NOR cAMP EC50 (nM)): 3.2 nM; EC50 ([7]; NOR cAMP pEC50± SEM): 3.16 nM
c1ccc(CCCN2CC3CCC(C2)N3c2cccc(-c3ncco3)c2)cc1 [Compound 20, 2-(3-(3-(3-Phenylpropyl)-3,8-diazabicyclo[3.2.1]octan-8-yl)phenyl)oxazole] | 320 | 100 ± 0.1 |  |  |  |  |  | 
C[C@@H](NC(=O)[C@@H](N)Cc1ccc(O)cc1)C(=O)NCC(=O)N(C)[C@@H](Cc1ccccc1)C(=O)NCCO [DAMGO, reference compound] |  |  |  | 102.3 ± 0.2 |  |  |  | 
Buprenorphine [reference compound] |  |  |  |  |  |  |  | ED50 (antinociception, hot plate) (B6129/F1 hybrid mice [8]; mouse, in vivo, ip): 0.6441 mg/kg
